This note sets out measurements from ChEMBL document CHEMBL3988442, “University of Dundee, Small-Polar-MMV Screening Library” (2021).

The nature of assay [1]: microbe, parasite or virus in culture. Conditions: Mycobacterium tuberculosis, 72 h, read-out: pIC50 (converted).
A short description of assay [2]: microbe, parasite or virus in culture. The note with it: Mycobacterium tuberculosis, 96 h, read-out: pIC50 (converted).

Some results are limits rather than exact numbers.

Take `NCCc1cccc2cc[nH]c12`: the IC50 was 177 µM in assay [1] and 211 µM in assay [2].
`Fc1ccc2nc(N3CCCNCC3)oc2c1F`: the IC50 in assay [1] is 51.6 µM; in assay [2], 122 µM.
Consider `Cn1nnnc1NCc1cccc(Cl)c1Cl`, for which the IC50 in assay [1] and in assay [2] was above 501 µM each time.
`c1ccc(Oc2cccc(NCc3csnn3)c2)nc1`: the IC50 in assay [1] was 298 µM; in assay [2], 171 µM.
As for `COC(=O)c1cccc(OCC(O)C(F)(F)F)c1` (stereo not drawn), the IC50 in assay [1] and in assay [2] was above 501 µM throughout.
As for `CCOc1ccc(CNC(=O)CCn2cccn2)cc1`, the results for the IC50 in assay [1] and in assay [2] were 148 µM and above 501 µM, respectively.
`NC(=O)C1CCN(C(=O)COc2ccc(F)cc2Br)C1` (stereo not drawn): the IC50 in assay [1] and in assay [2] was above 501 µM in each case.
As to `CCN(C)C(=O)Nc1ccc(C(=O)OC)c(F)c1`, the IC50 in assay [1] and in assay [2] was above 501 µM each time.
With `CC(OC(=O)c1ccc(C(F)(F)F)cc1)C(N)=O` (stereo not drawn), the IC50 in assay [1] is 229 µM; in assay [2], 466 µM.
Take `Clc1ccc(-c2noc(CN3CCCNCC3)n2)cc1`: the IC50 in assay [1] was 213 µM; in assay [2], 216 µM.
Consider `CCS(=O)(=O)N(C)C(=O)CCc1c[nH]c2ccccc12`, for which the IC50 is 44.8 µM in assay [1] and 97.3 µM in assay [2].
For `COCCc1noc(CNC2CCCC(C)(C)C2)n1` (stereo not drawn), the IC50 in assay [1] is 2.66 µM; in assay [2] it was above 50.1 µM.
For `CN1CCC(Cc2cc(Nc3ncccn3)ncn2)CC1`, the IC50 in assay [1] and in assay [2] was above 50.1 µM throughout.
Turning to `O=C(NCC1CCN(C2CC2)C1)c1ccccc1F` (stereo not drawn), the IC50 in assay [1] was 423 µM; in assay [2] it was 376 µM.
Consider `CC(=O)N1CCC(CN(C)Cc2ccc(Br)o2)C1` (stereo not drawn), for which the IC50 in assay [1] and in assay [2] was above 501 µM each time.
For `COC(=O)CSCC(=O)Nc1cc(F)cc(F)c1`, the IC50 in assay [1] is 204 µM; in assay [2], above 501 µM.
In the same order, the values of `COc1cccc(CN2CCC(CO)(Cc3ccc(Cl)cc3)CC2)c1O` are 29.4 µM and 26.1 µM.
Consider `Cc1c[nH]c(C(=O)NC2COc3ccccc3C2)n1` (stereo not drawn), for which the IC50 in assay [1] and in assay [2] was above 501 µM each time.
Regarding `COc1ccccc1-c1ncc(CN2C[C@@H](N(C)C)[C@H](C(C)C)C2)s1`, the results for the IC50 in assay [1] and in assay [2] were 31.4 µM and 25.4 µM, respectively.
In the same order, the values of `CCc1nc(CNC)cs1` are 305 µM and 236 µM.
With `CCOCC(=O)NCC1(O)CCCc2ccccc21` (stereo not drawn), the IC50 in assay [1] is 83.9 µM; in assay [2], 231 µM.
Regarding `COC(=O)c1cc(C)nc(N2CCN(Cc3cc(C(C)C)no3)CC2)n1`, the IC50 in assay [1] and in assay [2] was above 50.1 µM throughout.
For the compound `Cc1ccc(CNC(=O)c2cnn(C)c2)cc1F`, the values for the IC50 in assay [1] and in assay [2] were 275 µM and above 501 µM, respectively.
The matching figures for `CCCc1cc(C(=O)NCC2COCCO2)cs1` (stereo not drawn): above 501 µM and 124 µM.
For the compound `CC(Nc1ccc(Br)cc1)c1nc(C2CC2)no1` (stereo not drawn), the IC50 in assay [1] is 2.01 µM; in assay [2] it was 0.994 µM.
Turning to `O=C(NC1CCc2ccc(F)cc21)c1c[nH]nn1` (stereo not drawn), the IC50 was above 501 µM in assay [1] and 399 µM in assay [2].
In the same order, the values of `COCCN1C[C@@H]2CN(c3cc(OC)ncn3)CCC[C@]2(C(=O)O)C1` are above 50.1 µM and above 50.1 µM.
Take `CN(C)c1ncccc1CNS(=O)(=O)c1ccccc1`: the IC50 in assay [1] and in assay [2] was above 501 µM throughout.
On to `Nc1cc(N2CCCC(CO)(Cc3ccccc3F)C2)nc(N)n1` (stereo not drawn), for which the IC50 is 47.1 µM in assay [1] and 45.3 µM in assay [2].
`COc1cccc(CNc2nc(C(C)C)nn2C)n1`: the IC50 in assay [1] was 315 µM; in assay [2] it was above 501 µM.
On to `CCCN1CCC(Nc2cc(-c3ccccc3)ccc2OC)CC1`, for which the IC50 in assay [1] is 23.4 µM; in assay [2] it was 32.9 µM.
Turning to `Clc1cccc2nc(N3CCNCC3)oc12`, the IC50 is 144 µM in assay [1] and 349 µM in assay [2].
For `Cn1nnc(NCc2ccc(-c3ccc(Br)cc3)o2)n1`, the results for the IC50 in assay [1] and in assay [2] were 25.3 µM and 11.9 µM, respectively.
With `COc1cc(C)sc1C(=O)NCCNc1ccccc1`, the values for the IC50 in assay [1] and in assay [2] were 5.82 µM and 4.3 µM, respectively.
Regarding `CN(C)S(=O)(=O)N1CCCC1c1ccccc1Br` (stereo not drawn), the IC50 in assay [1] is 206 µM; in assay [2], 273 µM.
Consider `Cc1ccc2[nH]c(=O)cc(C(=O)NCCCn3nccc3C3CC3)c2c1`, for which the IC50 in assay [1] was 26.1 µM; in assay [2], above 50.1 µM.
With `CC(Oc1ccc(Cl)cc1)C(=O)N(C)C` (stereo not drawn), the IC50 in assay [1] and in assay [2] was above 501 µM throughout.
Turning to `O=C(NCC(O)C1CCCCC1)[C@@H](O)c1ccccc1` (stereo partly drawn), the IC50 in assay [1] was 86.1 µM; in assay [2] it was 189 µM.
For the compound `Cc1cc(CN(C)CC2(O)CCCN(CCC3CCCCC3)C2=O)no1` (stereo not drawn), the IC50 in assay [1] and in assay [2] was above 50.1 µM in each case.
Take `Cc1cc(CN)on1`: the IC50 in assay [1] and in assay [2] was 293 µM throughout.
Regarding `CCOCC(=O)NCC(O)c1cccc(C(F)(F)F)c1` (stereo not drawn), the IC50 in assay [1] and in assay [2] was above 501 µM each time.
Regarding `O=C(CC1CC1)N[C@@H]1CN(Cc2ccoc2)C[C@@H]2CCCO[C@@H]21`, the IC50 in assay [1] and in assay [2] was above 50.1 µM in each case.
`N#Cc1ccc(OCC(=O)Nc2ccccn2)cc1`: the IC50 was 247 µM in assay [1] and above 501 µM in assay [2].
As for `COc1ccc(CC2CCN2)cc1` (stereo not drawn), the IC50 in assay [1] was 212 µM; in assay [2], 250 µM.
Consider `COCC(C)(CCO)NCC(=O)Nc1ccccc1I` (stereo not drawn), for which the IC50 was 238 µM in assay [1] and above 501 µM in assay [2].
Regarding `CCOc1ccc(C(=O)Nc2ccnc(C)c2)cn1`, the IC50 in assay [1] was 279 µM; in assay [2] it was above 501 µM.
For `CCOC1CCN(CCc2nc(-c3cccc(Cl)c3)no2)CC1`, the IC50 in assay [1] is 32.4 µM; in assay [2], 28.2 µM.
For `CCc1nc(CN2CCCN(c3cnc4ccccc4n3)CC2)no1`, the IC50 in assay [1] is above 50.1 µM; in assay [2], 26.5 µM.
Consider `COC(CNC(=O)N1CCSCC1)c1ccc(F)cc1` (stereo not drawn), for which the IC50 in assay [1] and in assay [2] was above 501 µM throughout.
Consider `CC1CN(CCC(=O)NC(N)=O)CCO1` (stereo not drawn), for which the figures for the IC50 in assay [1] and in assay [2] were 80.3 µM and 286 µM, respectively.
`O=C(NCc1ccco1)N1CCN(Cc2ccc3c(c2)CCO3)CC1`: the IC50 was 11.4 µM in assay [1] and 5.53 µM in assay [2].
Turning to `Cc1cnc(NC(=O)c2csc(NC3CCCC3)n2)s1`, the IC50 in assay [1] and in assay [2] was above 50.1 µM throughout.
Consider `CC(C(=O)Nc1ccc(Br)cc1)n1cnnn1` (stereo not drawn), for which the values for the IC50 in assay [1] and in assay [2] were 393 µM and 199 µM, respectively.
Regarding `CN(CC1CCOCC1)C(=O)NCc1ccco1`, the IC50 in assay [1] is 95.8 µM; in assay [2] it was 125 µM.
In the same order, the values of `Cc1nc2c(c(NCc3nc4ccccc4s3)n1)CCNCC2` are 23.7 µM and 45.8 µM.
Consider `COc1coc(CN2CCCC(CCc3ccc(F)c(F)c3)C2)cc1=O` (stereo not drawn), for which the IC50 in assay [1] was above 50.1 µM; in assay [2], 14.3 µM.
In the case of `Cc1ccc(C(=O)NCc2ccnc(N(C)C)c2)s1`, the IC50 in assay [1] was 273 µM; in assay [2] it was above 501 µM.
For the compound `CCc1nc(C2CCCN(C(=O)c3ccccc3Cl)C2)no1` (stereo not drawn), the IC50 in assay [1] was 23.9 µM; in assay [2], above 50.1 µM.
On to `NC(=O)C1CCN(C(=O)CCc2ccc(Cl)cc2Cl)C1` (stereo not drawn), for which the IC50 in assay [1] was 157 µM; in assay [2], 284 µM.
